# Test results reported in US12382888B2, “Compositions and methods for modulating immunity in plants” (Boyce Thompson Institute for Plant Research, Inc., priority 2013, dated 2025).
# Entries after “also recorded” stand apart in the source; their conditions may differ.
# What was measured:
# Botrytis cinerea = assay: Resistance of tomato to Botrytis cinerea B05.01 (detached leaflet assay); assay type: in vivo; details: tomato cv. M82; root immersion 0.01 μM 48 hours before
# [1] = test system: Pseudomonas syringae pv. tomato DC3000 (Pst); assay: Resistance of Arabidopsis to Pseudomonas syringae pv. tomato DC3000 (bacterial growth); assay type: in vivo; details: for resistance to virulent Pst DC3000 (bacterial growth): leaf syringe infiltration 0.3 μM 24 hours prior to inoculation, 3 dpi; for resistance to virulent Pst DC3000: leaf treatment at the concentration tested
# [2] = test system: ovalbumin-specific T-helper cell responses; details: mice; cited from earlier work
# PR-1 [3] = assay: PR-1 expression in Arabidopsis leaves (semi-quantitative PCR / qRT-PCR); details: for PR-1 expression in Arabidopsis: leaf pretreatment by syringe infiltration, 0.01, 0.3, and 10 μM; for PR-1 expression, ascaroside alone: leaf syringe infiltration (0.01 or 0.3 μM), semi-quantitative PCR
# PR-1 [4] = assay: PR-1 protein/transcript induction in tobacco leaves (immunoblot, RT-PCR); details: low concentrations of ascaroside
# Experimental: Four-weeks old tobacco plants were syringe-infiltrated with buffer, SA, or a mixture of SA (50 μM or 500 μM) and decreasing concentration of ascr #18 (10, 0.3, and 0.01 μM). PR-1 was assayed 48 hours after treatment by immunoblot using anti-PR-1 antibody.
# PR-1 expression was analyzed 48 hp SA treatment.
# To determine whether ascr #18 affects levels of the prototypic SA-responsive PR-1 gene/protein, tobacco plants were treated with varying concentrations of ascr #18 in the presence or absence of SA (FIG. 2).
# PDF1.2 = PDF1.2 expression in Arabidopsis leaves (semi-quantitative PCR / qRT-PCR); details: for PDF1.2 expression in Arabidopsis: leaf pretreatment by syringe infiltration, 0.01, 0.3, and 10 μM; for PDF1.2 expression, ascaroside alone: leaf syringe infiltration (0.01 or 0.3 μM), semi-quantitative PCR
# C. elegans = details: cited from earlier work; for sex pheromone activity: mixture of three ascarosides
# [5] = test system: asthma in a mouse model system; details: cited from earlier work
# Heterodera schachtii = assay: Arabidopsis cyst nematode infection assay; assay type: in vivo; details: higher concentrations than 10 nM
# M. incognita = assay: Arabidopsis root knot nematode infection assay; assay type: in vivo, Meloidogyne incognita; details: higher concentrations than 10 nM
# [6] = test system: Pseudomonas syringae pv. tabaci; assay: Resistance of tobacco to Pseudomonas syringae pv. tabaci (bacterial growth); details: leaves treated with 250 μM SA alone
# [7] = ascaroside at low concentrations in combination with SA (50 μM)
# [8] = higher concentration of ascaroside with SA (50 μM)
molecule,measurement,setting,value
CC1O[C@@H](O[C@H](C)CCCCCCCCC(=O)NCCO)C(O)C[C@H]1O (stereo partly shown) [easc #18],resistance to B. cinerea (lesion size 3 dpi),Botrytis cinerea,enhanced resistance
same,resistance to virulent Pst DC3000 (bacterial growth),[1],enhances resistance
CC1O[C@@H](O[C@H](C)CCCC/C=C/C(=O)O)C(O)C[C@H]1O (stereo partly shown) [ascr #3],ovalbumin-specific T-helper cell responses,[2],no significant effect
same,SA-induced PR-1 expression,PR-1 [3]; [7],enhances PR-1 expression induced by SA
same,SA-induced PR-1 expression,PR-1 [3]; [8],reduces the SA-induced PR-1 expression
same,PR-1 expression in Arabidopsis,PR-1 [3],+
same,"PR-1 expression, ascaroside alone",PR-1 [3],induces PR-1 expression; also recorded: induced expression; also recorded: altered
same,PR-1 expression in tobacco cv. W38,PR-1 [4],did not significantly increase PR-1 expression
same,resistance to virulent Pst DC3000 (bacterial growth),[1],enhanced resistance
same,PDF1.2 expression in Arabidopsis,PDF1.2,+
same,"PDF1.2 expression, ascaroside alone",PDF1.2,induces PDF1.2 expression; also recorded: induced expression; also recorded: altered
same,response of hermaphrodites,C. elegans,repels hermaphrodites
same,sex pheromone activity,C. elegans,active at low nanomolar concentrations
CC1O[C@@H](O[C@H](C)CCCCCCC(=O)O)C(O)C[C@H]1O (stereo partly shown) [ascr #10],SA-induced PR-1 expression,PR-1 [3]; [7],enhances PR-1 expression induced by SA
same,"PR-1 expression, ascaroside alone",PR-1 [3],induces PR-1 expression; also recorded: altered
same,PR-1 expression in tobacco cv. W38,PR-1 [4],did not significantly increase PR-1 expression
same,resistance to virulent Pst DC3000,[1],did not significantly enhance resistance
same,"PDF1.2 expression, ascaroside alone",PDF1.2,induces PDF1.2 expression; also recorded: altered
same,response of hermaphrodites,C. elegans,strongly attracts hermaphrodites
"CC(=O)CC[C@@H](C)O[C@@H]1OC(C)[C@H](O)CC1O (stereo partly shown) [ascr #2, reference compound]",sex pheromone activity,C. elegans,active at low nanomolar concentrations
CC1O[C@@H](O[C@H](C)CC/C=C/C(=O)O)C(O)C[C@H]1O (stereo partly shown) [ascr #7],ovalbumin-specific T-helper cell responses,[2],strongly suppresses
same,development of asthma,[5],strongly suppressed the development of asthma
"CC1O[C@@H](O[C@H](C)CCCC/C=C/C(=O)O)C(O)C[C@H]1OC(=O)c1ccc(O)cc1 (stereo partly shown) [hbas #3, reference compound]",promotion of aggregation behaviors,C. elegans,active at femtomolar concentrations
CC1O[C@@H](O[C@H](C)CCCCC(=O)O)C(O)C[C@H]1O (stereo partly shown) [ascr #1],development of asthma,[5],strongly suppressed the development of asthma
CC1O[C@@H](O[C@H](C)CC/C=C/C(=O)Nc2ccc(C(=O)O)cc2)C(O)C[C@H]1O (stereo partly shown) [ascr #8],sex pheromone activity,C. elegans,active at low nanomolar concentrations
CC1O[C@@H](OCCCCC(=O)O)C(O)C[C@H]1O (stereo partly shown) [oscr #9],SA-induced PR-1 expression,PR-1 [3]; [7],enhances PR-1 expression induced by SA
same,resistance to virulent Pst DC3000,[1],did not significantly enhance resistance
same,PDF1.2 expression in Arabidopsis,PDF1.2,−
C[C@H](CCC(=O)O)O[C@@H]1O[C@@H](C)[C@H](O)C[C@H]1O [ascr #9],SA-induced PR-1 expression,PR-1 [3]; [7],enhances PR-1 expression induced by SA
same,SA-induced PR-1 expression,PR-1 [3]; [8],reduces the SA-induced PR-1 expression
same,PR-1 expression in Arabidopsis,PR-1 [3],+
same,"PR-1 expression, ascaroside alone",PR-1 [3],induces PR-1 expression; also recorded: induced expression; also recorded: altered
same,PR-1 expression in tobacco cv. W38,PR-1 [4],did not significantly increase PR-1 expression
same,resistance to virulent Pst DC3000,[1],did not significantly enhance resistance
same,PDF1.2 expression in Arabidopsis,PDF1.2,+
same,"PDF1.2 expression, ascaroside alone",PDF1.2,induces PDF1.2 expression; also recorded: induced expression; also recorded: altered
"(10R)-(3′R,5′R-dihydroxy-6′S-methyl-(2H)-tetrahydropyran-2-yloxy)-undecanoic Acid [ascr #18]",infection with H. schachtii,Heterodera schachtii,less effective
same,infection with M. incognita,M. incognita,less effective
"O=C(O)c1ccccc1O [SA, salicylic acid, reference compound]",virulent P.t. growth,[6],reduced levels of virulent P.t. growth
same,protection against Pst,"[1]; 50 μM SA alone, leaf infiltration",low level of protection
